These results are taken from patent US20210292347A1, “DIHETEROCYCLIC TRIAZINONE NUCLEOSIDE ANALOGS AND THEIR USE FOR MEDICATION” (priority 2020, published 2021).

The subject of this assay is mice sarcoma S180. Briefly: Growth inhibition of S180 sarcoma in mice. As to conditions: for in-vivo anti-tumor efficacy, statistical significance (in words): S180 sarcoma in mice, doses and routes of Table 3. It counts as in vivo, Kunming healthy mice.
Setting [1] is: Mus musculus, S-180, mice, ip, 200 mg/kg, read-out: Inhibition rate (%) S180 sarcoma.
Setting [2] is: Mus musculus, S-180, mice, ip, 100 mg/kg, read-out: Inhibition rate (%) S180 sarcoma.
[3] abbreviates: Mus musculus, S-180, mice, iv, read-out: Inhibition rate (%) S180 sarcoma.

Some results are limits rather than exact numbers.

On to “2-(3,4-dihydroxy-5-(hydroxymethyl)tetrahydrofuran-2-yl)-7-hydroxy-5-propyl-2,7-dihydro-1H-pyrazolo[4,3-d][1,2,3]triazin-1-one [Example 14]”, for which the “in-vivo anti-tumor efficacy, statistical significance (in words)” value was “statistically significant”. In addition, the “Inhibition rate (%) S180 sarcoma” value (mice, iv, 12.5 mg/kg) is given as “++ (++ represent of Inhibition rate % <40)”. For `CN(C)CCC(=O)Nc1nn(O)c2c(=O)n(C3OC(CO)C(O)C3O)nnc12` (stereo not shown) [Example 16, N-(3-(3,4-dihydroxy-5-(hydroxymethyl)tetrahydrofuran-2-yl)-5-hydroxy-4-oxo-4,5-dihydro-3H-pyrazolo[4,3-d][1,2,3]triazin-7-yl)-3-(dimethylamino) propanamide], the “Inhibition rate (%) S180 sarcoma” value (mice, ip, 100 mg/kg) is listed as “+ (+ represent of Inhibition rate % <20)”.

In the case of `N#Cc1nn(O)c2c(=O)n(C3OC(CO)C(O)C3O)nnc12` (stereo not shown) [Example 17, 3-(3,4-dihydroxy-5-(hydroxymethyl)tetrahydrofuran-2-yl)-5-hydroxy-4-oxo-4,5-dihydro-3H-pyrazolo [4,3-d][1,2,3]triazine-7-carbonitrile], the “in-vivo anti-tumor efficacy, statistical significance (in words)” value is given as “statistically significant”. For the setting “Mus musculus, S-180, mice, iv, 25 mg/kg, read-out: Inhibition rate (%) S180 sarcoma”, the inhibition in vivo at 25 mg/kg is less than 40%.

`O=c1c2c(nnn1C1OC(CO)C(O)C1O)c(N1CCCCC1)nn2O` (stereo not shown) [Example 18, 3-(3,4-dihydroxy-5-(hydroxymethyl)tetrahydrofuran-2-yl)-5-hydroxy-7-(piperidin-1-yl)-3H-pyrazolo [4,3-d][1,2,3]triazin-4(5H)-one]: the inhibition in vivo at 200 mg/kg under setting [1] was less than 20%. `COc1ccc(C(=O)Nc2nn(O)c3c(=O)n(C4OC(CO)C(O)C4O)nnc23)cc1` (stereo not shown) [Example 20, N-(3-(3,4-dihydroxy-5-(hydroxymethyl)tetrahydrofuran-2-yl)-5-hydroxy-4-oxo-4,5-dihydro-3H-pyrazolo[4,3-d][1,2,3]triazin-7-yl)-4-methoxybenzamide]: the inhibition in vivo at 200 mg/kg under setting [1] was less than 20%.

In the case of `CCOC(=O)c1nn(C)c2c(=O)n(C3OC(CO)C(O)C3O)nnc12` (stereo not shown) [Example 22, ethyl 3-(3,4-dihydroxy-5-(hydroxymethyl)tetrahydrofuran-2-yl)-5-methyl-4-oxo-4,5-dihydro-3H-pyrazolo[4,3-d][1,2,3]triazine-7-carboxylate], the “in-vivo anti-tumor efficacy, statistical significance (in words)” value was “statistically significant”. Moreover, under setting [1], the inhibition in vivo at 200 mg/kg was less than 40%. With `CCCc1nn(C)c2c(=O)n(C3OC(CO)C(O)C3O)nnc12` (stereo not shown) [Example 23, 3-(3,4-dihydroxy-5-(hydroxymethyl)tetrahydrofuran-2-yl)-5-methyl-7-propyl-3H-pyrazolo [4,3-d][1,2,3]triazin-4(5H)-one], the “in-vivo anti-tumor efficacy, statistical significance (in words)” value was “statistically significant”. Under setting [2], the inhibition in vivo at 100 mg/kg was less than 40%. `Cn1nc(N)c2nnn(C3OC(CO)C(O)C3O)c(=O)c21` (stereo not shown) [Example 24, 7-amino-3-(3,4-dihydroxy-5-(hydroxymethyl)tetrahydrofuran-2-yl)-5-methyl-3H-pyrazolo [4,3-d][1,2,3]triazin-4(5H)-one]: the “in-vivo anti-tumor efficacy, statistical significance (in words)” value is given as “statistically significant”. Moreover, the inhibition in vivo at 300 mg/kg (Mus musculus, S-180, mice, ip, 300 mg/kg, read-out: Inhibition rate (%) S180 sarcoma) was less than 40%. `CN(C)CCC(=O)Nc1nn(C)c2c(=O)n(C3OC(CO)C(O)C3O)nnc12` (stereo not shown) [Example 25, N-(3-(3,4-dihydroxy-5-(hydroxymethyl)tetrahydrofuran-2-yl)-5-methyl-4-oxo-4,5-dihydro-3H-pyrazolo[4,3-d][1,2,3]triazin-7-yl)-3-(dimethylamino) propanamide]: the “in-vivo anti-tumor efficacy, statistical significance (in words)” value is recorded as “statistically significant”. Besides, the “Inhibition rate (%) S180 sarcoma” value (mice, ip, 200 mg/kg) was “++ (++ represent of Inhibition rate % <40)”. With `Cn1nc(C#N)c2nnn(C3OC(CO)C(O)C3O)c(=O)c21` (stereo not shown) [Example 26, 3-(3,4-dihydroxy-5-(hydroxymethyl)tetrahydrofuran-2-yl)-5-methyl-4-oxo-4,5-dihydro-3H-pyrazolo[4,3-d][1,2,3]triazine-7-carbonitrile], the “in-vivo anti-tumor efficacy, statistical significance (in words)” value was “statistically significant”. In addition, the inhibition in vivo at 70 mg/kg (Mus musculus, S-180, mice, ip, 70 mg/kg, read-out: Inhibition rate (%) S180 sarcoma) was less than 40%. Take `Cn1nc(N2CCCCC2)c2nnn(C3OC(CO)C(O)C3O)c(=O)c21` (stereo not shown) [Example 27, 3-(3,4-dihydroxy-5-(hydroxymethyl)tetrahydrofuran-2-yl)-5-methyl-7-(piperidin-1-yl)-3H-pyrazolo[4,3-d][1,2,3]triazin-4(5H)-one]: under setting [3], the inhibition in vivo at 15 mg/kg is less than 20%. With `Cn1nc([N+](=O)[O-])c2nnn(C3OC(CO)C(O)C3O)c(=O)c21` (stereo not shown) [Example 28, 3-(3,4-dihydroxy-5-(hydroxymethyl)tetrahydrofuran-2-yl)-5-methyl-7-nitro-3H-pyrazolo [4,3-d][1,2,3]triazin-4(5H)-one], the “in-vivo anti-tumor efficacy, statistical significance (in words)” value was “statistically significant”. For the same compound, the inhibition in vivo at 20 mg/kg (Mus musculus, S-180, mice, iv, 20 mg/kg, read-out: Inhibition rate (%) S180 sarcoma) is less than 40%. As to `COc1ccc(C(=O)Nc2nn(C)c3c(=O)n(C4OC(CO)C(O)C4O)nnc23)cc1` (stereo not shown) [Example 29, N-(3-(3,4-dihydroxy-5-(hydroxymethyl)tetrahydrofuran-2-yl)-5-methyl-4-oxo-4,5-dihydro-3H-pyrazolo[4,3-d][1,2,3]triazin-7-yl)-4-methoxybenzamide], under setting [3], the inhibition in vivo at 15 mg/kg is less than 20%. On to `CCOC(=O)c1nn(CO)c2c(=O)n(C3OC(CO)C(O)C3O)nnc12` (stereo not shown) [Example 30, ethyl 3-(3,4-dihydroxy-5-(hydroxymethyl)tetrahydrofuran-2-yl)-5-(hydroxymethyl)-4-oxo-4,5-dihydro-3H-pyrazolo [4,3-d][1,2,3]triazine-7-carboxylate], for which the “in-vivo anti-tumor efficacy, statistical significance (in words)” value was “statistically significant”. Under “Mus musculus, S-180, mice, ip, 400 mg/kg, read-out: Inhibition rate (%) S180 sarcoma”, the inhibition in vivo at 400 mg/kg was less than 40%. `CCCc1nn(CO)c2c(=O)n(C3OC(CO)C(O)C3O)nnc12` (stereo not shown) [Example 31, 3-(3,4-dihydroxy-5-(hydroxymethyl)tetrahydrofuran-2-yl)-5-(hydroxymethyl)-7-propyl-3H-pyrazolo[4,3-d][1,2,3]triazin-4(5H)-one]: the “in-vivo anti-tumor efficacy, statistical significance (in words)” value is listed as “statistically significant”. Also, under setting [2], the inhibition in vivo at 100 mg/kg was less than 40%. In the case of `Nc1nn(CO)c2c(=O)n(C3OC(CO)C(O)C3O)nnc12` (stereo not shown) [Example 32, 7-amino-3-(3,4-dihydroxy-5-(hydroxymethyl)tetrahydrofuran-2-yl)-5-(hydroxymethyl)-3H-pyrazolo [4,3-d][1,2,3]triazin-4(5H)-one], the “in-vivo anti-tumor efficacy, statistical significance (in words)” value is given as “statistically significant”. For the same compound, the inhibition in vivo at 30 mg/kg (Mus musculus, S-180, mice, iv, 30 mg/kg, read-out: Inhibition rate (%) S180 sarcoma) was less than 40%. For `O=c1c2c(nnn1C1OC(CO)C(O)C1O)c([N+](=O)[O-])nn2CO` (stereo not shown) [Example 36, 3-(3,4-dihydroxy-5-(hydroxymethyl)tetrahydrofuran-2-yl)-5-(hydroxymethyl)-7-nitro-3H-pyrazolo [4,3-d][1,2,3]triazin-4(5H)-one], the “in-vivo anti-tumor efficacy, statistical significance (in words)” value is “statistically significant”. Under setting [1], the inhibition in vivo at 200 mg/kg was less than 40%. As for `CCCc1nn(C2CC2)c2c(=O)n(C3OC(CO)C(O)C3O)nnc12` (stereo not shown) [Example 40, 5-cyclopropyl-3-(3,4-dihydroxy-5-(hydroxymethyl)tetrahydrofuran-2-yl)-7-propyl-3H-pyrazolo[4,3-d][1,2,3]triazin-4(5H)-one], the inhibition in vivo at 50 mg/kg under setting [3] was less than 20%. Turning to `CCOC(=O)c1nn(CC(N)=O)c2c(=O)n(C3OC(CO)C(O)C3O)nnc12` (stereo not shown) [Example 48, ethyl 5-(2-amino-2-oxoethyl)-3-(3,4-dihydroxy-5-(hydroxymethyl)tetrahydrofuran-2-yl)-4-oxo-4,5-dihydro-3H-pyrazolo[4,3-d][1,2,3]triazine-7-carboxylate], the “in-vivo anti-tumor efficacy, statistical significance (in words)” value is recorded as “statistically significant”. The inhibition in vivo at 50 mg/kg under setting [3] was less than 40%. Take `CCCc1nn(CC(N)=O)c2c(=O)n(C3OC(CO)C(O)C3O)nnc12` (stereo not shown) [Example 49, 2-(3-(3,4-dihydroxy-5-(hydroxymethyl)tetrahydrofuran-2-yl)-4-oxo-7-propyl-3H-pyrazolo [4,3-d][1,2,3]triazin-5(4H)-yl)acetamide]: the “in-vivo anti-tumor efficacy, statistical significance (in words)” value is “statistically significant”. For the same compound, under setting [2], the inhibition in vivo at 100 mg/kg is less than 40%.

Consider `NC(=O)Cn1nc(N)c2nnn(C3OC(CO)C(O)C3O)c(=O)c21` (stereo not shown) [Example 50, 2-(7-amino-3-(3,4-dihydroxy-5-(hydroxymethyl)tetrahydrofuran-2-yl)-4-oxo-3H-pyrazolo[4,3-d][1,2,3]triazin-5(4H)-yl)acetamide], for which the “in-vivo anti-tumor efficacy, statistical significance (in words)” value was “statistically significant”. Further, under setting [3], the inhibition in vivo at 15 mg/kg was less than 40%.

As for `NC(=O)Cn1nc([N+](=O)[O-])c2nnn(C3OC(CO)C(O)C3O)c(=O)c21` (stereo not shown) [Example 54, 2-(3-(3,4-dihydroxy-5-(hydroxymethyl)tetrahydrofuran-2-yl)-7-nitro-4-oxo-3H-pyrazolo [4,3-d][1,2,3]triazin-5(4H)-yl)acetamide], the “in-vivo anti-tumor efficacy, statistical significance (in words)” value is given as “statistically significant”. For the same compound, the inhibition in vivo at 150 mg/kg (Mus musculus, S-180, mice, ip, 150 mg/kg, read-out: Inhibition rate (%) S180 sarcoma) was less than 40%. With `CCCc1nn(C(N)=O)c2c(=O)n(C3OC(CO)C(O)C3O)nnc12` (stereo not shown) [Example 55, 3-(3,4-dihydroxy-5-(hydroxymethyl)tetrahydrofuran-2-yl)-4-oxo-7-propyl-3H-pyrazolo [4,3-d][1,2,3]triazine-5(4H)-carboxamide], the “in-vivo anti-tumor efficacy, statistical significance (in words)” value is on record as “statistically significant”. Also, the inhibition in vivo at 100 mg/kg under setting [2] is less than 40%.
